assay: Binding affinity at delta opioid receptor in guinea pig brain by [3H]c[D-Pen2, p-Cl-Phe4, D-Pen5]-enkephalin displacement.

Point of comparison: CC[C@H](C)[C@@H]1NC(=O)[C@H](CCCN=C(N)N)NC(=O)[C@H](CCCN=C(N)N)NC(=O)[C@H](NC(=O)[C@H](Cc2ccccc2)NC(=O)CNC(=O)CNC(=O)[C@@H](N)Cc2ccc(O)cc2)C(C)(C)SSC[C@@H](C(N)=O)NC(=O)[C@@H]2CCCN2C(=O)[C@H](CCCN=C(N)N)NC1=O [Tyr-Gly-Gly-Phe-D-Pen-Arg-Arg-Ile-Arg-Pro-Pen-NH2], IC50 2 µM. Against it:
- CC[C@H](C)[C@@H]1NC(=O)[C@H](CCCNC(=N)N)NC(=O)[C@H](CCCNC(=N)N)NC(=O)[C@@H](NC(=O)[C@H](Cc2ccccc2)NC(=O)CNC(=O)CNC(=O)[C@@H](N)Cc2ccc(O)cc2)CSSC[C@@H](C(N)=O)NC(=O)[C@@H]2CCCN2C(=O)[C@H](CCCNC(=N)N)NC1=O — within 1.5-fold, 1.74 µM
- CC[C@H](C)[C@@H]1NC(=O)[C@H](CCCN=C(N)N)NC(=O)[C@H](CCCN=C(N)N)NC(=O)[C@H](NC(=O)[C@H](Cc2ccccc2)NC(=O)CNC(=O)CNC(=O)[C@@H](N)Cc2ccc(O)cc2)CSSC[C@@H](C(N)=O)NC(=O)[C@@H]2CCCN2C(=O)[C@H](CCCN=C(N)N)NC1=O — 2-fold lower, 1 µM
- CC[C@H](C)[C@@H]1NC(=O)[C@H](CCCN=C(N)N)NC(=O)[C@H](CCCN=C(N)N)NC(=O)[C@@H](NC(=O)[C@H](Cc2ccccc2)NC(=O)CNC(=O)CNC(=O)[C@@H](N)Cc2ccc(O)cc2)CSSC[C@H](C(N)=O)NC(=O)[C@@H]2CCCN2C(=O)[C@H](CCCN=C(N)N)NC1=O — 140-fold lower, 0.014 µM
- CC[C@H](C)[C@@H]1NC(=O)[C@H](CCCN=C(N)N)NC(=O)[C@H](CCCN=C(N)N)NC(=O)[C@@H](NC(=O)[C@H](Cc2ccccc2)NC(=O)CNC(=O)CNC(=O)[C@@H](N)Cc2ccc(O)cc2)CSSC(C)(C)[C@@H](C(N)=O)NC(=O)[C@@H]2CCCN2C(=O)[C@H](CCCN=C(N)N)NC1=O [Tyr-Gly-Gly-Phe-D-Cys-Arg-Arg-Ile-Arg-Pro-Cys-NH2] — 120-fold lower, 0.016 µM
- CC[C@H](C)[C@@H]1NC(=O)[C@H](CCCN=C(N)N)NC(=O)[C@H](CCCN=C(N)N)NC(=O)[C@H](NC(=O)[C@H](Cc2ccccc2)NC(=O)CNC(=O)CNC(=O)[C@@H](N)Cc2ccc(O)cc2)CSSC[C@H](C(N)=O)NC(=O)[C@@H]2CCCN2C(=O)[C@H](CCCN=C(N)N)NC1=O [Tyr-Gly-Gly-Phe-D-Cys-Arg-Arg-Ile-Arg-Pro-D-Cys-NH2] — 1.9-fold lower, 1.03 µM
- CC[C@H](C)[C@@H]1NC(=O)[C@H](CCCN=C(N)N)NC(=O)[C@H](CCCN=C(N)N)NC(=O)[C@@H](NC(=O)[C@H](Cc2ccccc2)NC(=O)CNC(=O)CNC(=O)[C@@H](N)Cc2ccc(O)cc2)C(C)(C)SSC[C@H](C(N)=O)NC(=O)[C@@H]2CCCN2C(=O)[C@H](CCCN=C(N)N)NC1=O [Tyr-Gly-Gly-Phe-Pen-Arg-Arg-Ile-Arg-Pro-D-Pen-NH2] — 8.6-fold lower, 0.232 µM
- CC[C@H](C)[C@@H]1NC(=O)[C@H](CCCN=C(N)N)NC(=O)[C@H](CCCN=C(N)N)NC(=O)[C@@H](NC(=O)[C@H](Cc2ccccc2)NC(=O)CNC(=O)CNC(=O)[C@@H](N)Cc2ccc(O)cc2)CSSC(C)(C)[C@H](C(N)=O)NC(=O)[C@@H]2CCCN2C(=O)[C@H](CCCN=C(N)N)NC1=O [Tyr-Gly-Gly-Phe-D-Cys-Arg-Arg-Ile-Arg-Pro-Pen-NH2] — 6.3-fold lower, 0.319 µM
- CC[C@H](C)[C@@H]1NC(=O)[C@H](CCCN=C(N)N)NC(=O)[C@H](CCCN=C(N)N)NC(=O)[C@@H](NC(=O)[C@H](Cc2ccccc2)NC(=O)CNC(=O)CNC(=O)[C@@H](N)Cc2ccc(O)cc2)C(C)(C)SSC(C)(C)[C@H](C(N)=O)NC(=O)[C@@H]2CCCN2C(=O)[C@H](CCCN=C(N)N)NC1=O [Tyr-Gly-Gly-Phe-Pen-Arg-Arg-Ile-Arg-Pro-D-Cys-NH2] — 2.8-fold lower, 0.717 µM
- CC[C@H](C)[C@@H]1NC(=O)[C@H](CCCN=C(N)N)NC(=O)[C@H](CCCN=C(N)N)NC(=O)[C@H](NC(=O)[C@H](Cc2ccccc2)NC(=O)CNC(=O)CNC(=O)[C@@H](N)Cc2ccc(O)cc2)C(C)(C)SSC[C@H](C(N)=O)NC(=O)[C@@H]2CCCN2C(=O)[C@H](CCCN=C(N)N)NC1=O [Tyr-Gly-Gly-Phe-D-Pen-Arg-Arg-Ile-Arg-Pro-D-Cys-NH2] — 5.1-fold lower, 0.39 µM
- CC[C@H](C)[C@@H]1NC(=O)[C@H](CCCN=C(N)N)NC(=O)[C@H](CCCN=C(N)N)NC(=O)[C@H](NC(=O)[C@H](Cc2ccccc2)NC(=O)CNC(=O)CNC(=O)[C@@H](N)Cc2ccc(O)cc2)CSSC(C)(C)[C@H](C(N)=O)NC(=O)[C@@H]2CCCN2C(=O)[C@H](CCCN=C(N)N)NC1=O [Tyr-Gly-Gly-Phe-D-Cys-Arg-Arg-Ile-Arg-Pro-D-Pen-NH2] — within 1.5-fold, 1.37 µM
- CC[C@H](C)[C@@H]1NC(=O)[C@H](CCCN=C(N)N)NC(=O)[C@H](CCCN=C(N)N)NC(=O)[C@@H](NC(=O)[C@H](Cc2ccccc2)NC(=O)CNC(=O)CNC(=O)[C@@H](N)Cc2ccc(O)cc2)C(C)(C)SSC[C@@H](C(N)=O)NC(=O)[C@@H]2CCCN2C(=O)[C@H](CCCN=C(N)N)NC1=O [Tyr-Gly-Gly-Phe-D-Pen-Arg-Arg-Ile-Arg-Pro-Cys-NH2] — 8.3-fold lower, 0.242 µM
- CC[C@H](C)[C@@H]1NC(=O)[C@H](CCCN=C(N)N)NC(=O)[C@H](CCCN=C(N)N)NC(=O)[C@@H](NC(=O)[C@H](Cc2ccccc2)NC(=O)CNC(=O)CNC(=O)[C@@H](N)Cc2ccc(O)cc2)C(C)(C)SSC(C)(C)[C@@H](C(N)=O)NC(=O)[C@@H]2CCCN2C(=O)[C@H](CCCN=C(N)N)NC1=O — 8.2-fold lower, 0.245 µM
- CC[C@H](C)[C@@H]1NC(=O)[C@H](CCCN=C(N)N)NC(=O)[C@H](CCCN=C(N)N)NC(=O)[C@H](NC(=O)[C@H](Cc2ccccc2)NC(=O)CNC(=O)CNC(=O)[C@@H](N)Cc2ccc(O)cc2)C(C)(C)SSC(C)(C)[C@H](C(N)=O)NC(=O)[C@@H]2CCCN2C(=O)[C@H](CCCN=C(N)N)NC1=O [Tyr-Gly-Gly-Phe-D-Pen-Arg-Arg-Ile-Arg-Pro-D-Pen-NH2] — within 1.5-fold, 1.91 µM
- CC[C@H](C)[C@@H]1NC(=O)[C@H](CCCN=C(N)N)NC(=O)[C@H](CCCN=C(N)N)NC(=O)[C@H](NC(=O)[C@H](Cc2ccccc2)NC(=O)CNC(=O)CNC(=O)[C@@H](N)Cc2ccc(O)cc2)C(C)(C)SSC(C)(C)[C@@H](C(N)=O)NC(=O)[C@@H]2CCCN2C(=O)[C@H](CCCN=C(N)N)NC1=O [Tyr-Gly-Gly-Phe-Pen-Arg-Arg-Ile-Arg-Pro-Cys-NH2] — within 1.5-fold, 1.36 µM
